# Laboratory results taken from US12122848B2, “Compositions and methods for treating fibroids” (THE LUNDQUIST INSTITUTE FOR BIOMEDICAL INNOVATION AT …, priority 2020, dated 2024).
# Entries after “also recorded” stand apart in the source; their conditions may differ.
# What was measured:
# [1] = tested on: LSMC (leiomyoma smooth muscle cells) spheroids; assay: Cell proliferation in LSMC spheroids, CellTiter-Glo 3D Cell Viability Assay; format: cell-based, human
# Procedure: (§1) Isolated MSMC and LSMC were plated in 6-well (1×10^5 cells/well) or 96-well (5×10^3 cells/well) plates which were coated with 0.5% agarose gel and incubated 48 hours for spheroids formation.
# (§2) The concentrations of inhibitors used was based on earlier studies and the cell proliferation was determined using the CellTiter-Glo 3D Cell Viability Assay (Promega, Madison, WI) according to the manufacturer's protocol. The assay was performed in six replicates per condition and repeated four times using cells isolated from four different patients.
# [2] = tested on: MSMC (myometrial smooth muscle cells) spheroids; assay: Cell proliferation in MSMC spheroids, CellTiter-Glo 3D Cell Viability Assay; format: cell-based, human
# Procedure: as §1, §2
# [3] = tested on: LSMC spheroids; assay: Immunoblotting of ECM and inflammation proteins in LSMC spheroids after inhibitor treatment; format: cell-based, human
# Procedure: Total protein isolated from paired tissue samples and MSMC and LSMC spheroids following treatment conditions was subjected to immunoblotting. Briefly, samples were suspended in RIPA buffer containing 1 mM EDTA and EGTA (Boston BioProducts, Ashland, MA) supplemented with 1 mM PMSF and a complete protease inhibitor mixture (Roche Diagnostics, Indianapolis, IN), sonicated, and centrifuged at 4° C. for 10 min at 14,000 rpm. The concentration of protein was determined using the BCA™ Protein Assay Kit (Thermo Scientific Pierce, Rockford, IL). Equal aliquots (thirty micrograms) of total protein for each sample was denatured with SDS-PAGE sample buffer and separated by electrophoresis on a SDS polyacrylamide gel. After transferring the samples to a nitrocellulose membrane, the membrane was blocked with TBS-Tween+5% milk and probed with the following primary antibodies: IDO1 (Cell Signaling Technology, Danvers, MA), TDO2, COL3A1 (Proteintech Group, Inc, Chicago, Illinois) and COL1A1 (Fitzgerald Industries Intl, Acton, MA). The membranes were washed with TBS containing 0.1% Tween-20 wash buffer after each antibody incubation cycle. SuperSignal West Pico Chemiluminescent Substrate™ (Thermo Scientific Pierce) was used for detection, and photographic emulsion was used to identify the protein bands, which were subsequently quantified by densitometry. The membranes were also stripped and probed with glyceraldehyde 3-phosphate dehydrogenase (GAPDH) antibody (Santa Cruz Biotechnology, Santa Cruz, CA) serving as the loading control. The densities of the specific protein bands were determined using image J program (imagej.nih.gov/ij/), normalized to GAPDH or a band obtained from staining the membrane with Ponceau S. Results were expressed as means±SEM as a ratio relative to the control group designated as 1.
# as §1
# [4] = tested on: leiomyoma explants; assay: COL1A1 and COL3A1 in culture-conditioned media of leiomyoma explants; format: cell-based, human; conditions: fresh leiomyoma explants, different doses, 48 hours, N=2
# Procedure: FIG. 5A-F. (A) Representative images of COL1A1 and COL3A1 in culture-conditioned media of leiomyoma explants after treatment with different doses of TDO2 inhibitor, 680C91 for 48 hours (N=2). An equal volume of conditioned media was used, and a Ponceau S-stained protein band on the nitrocellulose membrane was used as a loading control. (B) The effect of DMSO (control) and E2+P4 (10^−8M each) after 48 hours of culture on the expression of IDO1 and TDO2 in LSMC spheroids (N=2). (C) Representative western blot analysis of TDO2 following transfection of LSMC spheroids with anti-miR-200c oligonucleotides for 96 hrs. […] (E-F) QRT-PCR analysis of TDO2 (E), miR-29c and miR-200c (F) in LSMC spheroids after transfection of siRNA negative control (siNC) or TDO2 siRNA oligonucleotides (siTDO2) for 96 hours (N=3). The results are presented as mean±SEM with P values (*:p<0.05) indicated by corresponding lines.
# Using fresh leiomyoma explants, we confirmed that the expression of COL1A1 and COL3A1 was decreased in culture-conditioned media following treatment with different doses of TDO2 inhibitor, 680C91 (FIG. 5A).
# [5] = tested on: leiomyoma explants; assay: CYP1B1 expression in leiomyoma explants (AhR signaling marker); format: cell-based, human; conditions: fresh leiomyoma explants, 48 hours; kynurenine 100 μM, tryptophan different doses (mM), 680C91 50 μM
# [6] = tested on: leiomyoma explants; assay: Preliminary experiment: leiomyoma explants implanted subcutaneously in ovariectomized CB-17 scid/beige mice; format: in vivo; conditions: 8 mg/Kg daily via IP, 8 weeks
# Procedure: This example also performed a preliminary experiment using freshly collected leiomyoma explants implanted subcutaneously on the flank of ovariectomized CB-17 scid/beige female mice (N=2), and treated with vehicle or TDO2 inhibitor (680C91; 8 mg/Kg daily via IP) for 8 weeks. After sacrifice, plasma was collected and analyzed for blood chemistry panel (Abaxis).
# [7] = tested on: leiomyoma explants; assay: In vivo experiment: leiomyoma explants implanted subcutaneously in ovariectomized CB-17 scid/beige mice; conditions: 10 mg/Kg daily, i.p., 8 weeks
# Procedure: FIG. 7A-E. (A) Representative of the gross appearance of leiomyoma specimens (arrow) implanted subcutaneously in CB-17 SCID/Beige female mice following 8 weeks treatment of vehicle (left) or TDO2 inhibitor (right; 680C91; 10 mg/Kg daily via IP). (B) The relative explants weight between vehicle and 680C91 treated group after 8 weeks treatment (n=6). The ratio of plasma kynurenine vs tryptophan levels was shown in (C). (D) QRT-PCR analysis of COL1A1, FN1, DNMT1 and CCND1 expression in explants (n=6) implanted subcutaneously after 8 weeks treatment of vehicle or TDO2 inhibitor. (E) Paraformaldehyde-fixed paraffin-embedded xenograft explants of vehicle (a) or TDO2 inhibitor (b) stained with Masson's Trichrome reagent. […] The results are presented as mean±SEM with P values (*:p<0.05) indicated by corresponding lines.
# We also performed the in vivo experiment using freshly collected leiomyoma explants implanted subcutaneously in the flank of ovariectomized CB-17 scid/beige female mice (N=6), and treated with vehicle or TDO2 inhibitor (680C91; 10 mg/Kg daily, i.p.) for 8 weeks (FIG. 7A). After sacrifice, the explants weight was determined and the collected plasma was analyzed for levels of tryptophan, kynurenine and blood chemistry panel (Abaxis).
# [8] = tested on: LSMC spheroids; assay: Kynurenine treatment of LSMC spheroids, expression of AhR, IDO1, TDO2 and COL1A1; format: cell-based, human; conditions: 100 μM, 72 hours, N=2
# Procedure: FIG. 6A-D. (A) The relative (mean±SEM) expression of CYP1B1 in paired (N=43) myometrium (Myo) and leiomyoma (Lyo). (B) Representative images show the levels of AhR and ARNT in fresh subfractionated cytoplasmic (Cyto) and nuclear (Nu) phase from myometrium (Myo) and paired leiomyoma (Lyo) with Calpain 1 and Lamin B1 served as markers for the respective subcellular fractions (N=3). (C) Representative images of CYP1B1 in leiomyoma explants after treatment with kynurenine (100 μM), different doses of tryptophan (mM) and TDO2 inhibitor (680C91, 50 μM) for 48 hours with a Ponceau S-stained protein band on the nitrocellulose membrane used as a loading control (N=2). (D) The effect of kynurenine (KYN, 100 μM) treatment for 72 hours on the expression of AhR, IDO1, TDO2 and COL1A1 in LSMC spheroids (N=2). The results are presented as mean±SEM with P values (*:p<0.05) indicated by corresponding lines.
# Using fresh leiomyoma explants we confirmed that the expression of CYP1B1 was increased by the treatment of kynurenine (Kyn) and tryptophan, while decreased following TDO2 inhibitor treatment (FIG. 6C).
# [9] = Example 3, various concentrations, 48 hours, n=4
# [10] = Example 2, different doses, 48 h
# [11] = Example 3, 48 hours, different concentrations
structure (smiles),measurement,setting,value
"Fc1ccc2c(/C=C/c3cccnc3)c[nH]c2c1 [Compound 680C91, 6-Fluoro-3-[(1E)-2-(3-pyridinyl)ethenyl]-1H-indole]",cell proliferation,[1]; Example 2,significantly suppressed
same,spheroids cell proliferation,[1]; [9],significantly inhibited; also recorded: significantly repressed
same,cell proliferation,[2]; Example 2,significantly suppressed
same,spheroids cell proliferation,[2]; [9],significantly repressed
same,protein expression of COL3A1,[3]; [10],down-regulated dose dependently
same,protein expression of IKBKB,[3]; [10],down-regulated dose dependently
same,protein expression of fibronectin,[3]; [10],down-regulated dose dependently
same,expression of COL1A1,[3]; [11],significantly reduced; also recorded: significantly repressed
same,expression of COL3A1,[3]; [11],significantly reduced; also recorded: significantly repressed
same,expression of COL1A1 in culture-conditioned media,[4],decreased
same,expression of COL3A1 in culture-conditioned media,[4],decreased
same,expression of CYP1B1,[5],decreased
same,TDO2 expression,[6],down-regulated
same,effects on body weight,[6],no effects
same,effects on food consumption,[6],no effects
same,expression of COL1A1,[6],down-regulated
same,expression of MyD88,[6],down-regulated
same,expression of TGF-β3,[6],down-regulated
same,tumor size,[6]; N=2,reduced
same,adverse effects on blood chemistry including liver and renal panels,[6]; plasma,no adverse effects
same,effects on body weight,[7],no effects
same,effects on food consumption,[7],no effects
same,explants weight,[7]; N=6,lower weight
same,expression of CCND1,"[7]; explants, QRT-PCR",down-regulated
same,expression of COL1A1,"[7]; explants, QRT-PCR",down-regulated
same,expression of DNMT1,"[7]; explants, QRT-PCR",down-regulated
same,expression of FN1,"[7]; explants, QRT-PCR",down-regulated
same,adverse effects on blood chemistry including liver and renal panels,[7]; plasma,no adverse effects
same,ratio of kynurenine/tryptophan,[7]; plasma,decreased
same,"deposition of collagens, keratin and cytoplasm, Masson's Trichrome staining",[7]; xenograft explants,less deposition
Nc1ccccc1C(=O)CC(N)C(=O)O (stereo not drawn) [kynurenine],expression of CYP1B1,[5],increased
same,expression of AhR,[8],increase
same,expression of COL1A1,[8],increase
same,expression of IDO1,[8],increase
same,expression of TDO2,[8],increase
N[C@@H](Cc1c[nH]c2ccccc12)C(=O)O [tryptophan],expression of CYP1B1,[5],increased
